Assay results published in patent US8772448B2, “Peptides immunoreactive with autoantibodies from patients suffering from rheumatoid arthritis” (Stichting Voor de Technische Wetenschappen, priority 1996, dated 2014).
Where no end group is shown, it is not given here. [ ]: non-standard residue; d: D form. Cit = NC(=O)NCCC[C@H](N)C(=O)O

Key:
Assay type in all cases: binding, human
[1] = test system: autoimmune antibodies in sera from patients suffering from rheumatoid arthritis; assay: ELISA of coupled peptides with RA sera; conditions: for immunological reactivity in ELISA: RA sera; for RA sera (%) positive / RA sera: number of positive sera: n = 134 RA sera, positive = OD450 of 0.2 after deduction of blank; for RA sera: number of positive sera: sera diluted 200 times
Protocol: (§1) Detection by Means of ELISA
Via an N-oxysuccinimide surface the peptides were covalently coupled to the wells of 96-well microtitre plates (Costar amide binding plates) in an amount of 1 ? g/well. Coupling took place for 16 hours at 4EC and pH 9.0. The plates were blocked for 1 hour with 2% bovine serum albumin. The sera were diluted 200 times in a diluent (0.3% BSA, 350 mM NaCl, 10 mM Tris-HCl pH 7.6, 1% vol./vol. Triton X-100, 0.5% w./vol. Na-deoxycholate, 0.1% SDS) supplemented with 10% normal rabbit serum, and incubated for one hour at room temperature. After washing the plates (3 times with PBS containing 0.05 by vol. of Tween® 20), 100 ? l of antihuman IgG conjugated with peroxidase (Dako P214), 1000 times diluted in dilution buffer, was added to the wells. After incubation for 1 hour at room temperature, the plates were washed 3 times with PBS/Tween®, and bound antibodies were detected with tetramethyl benzidine as a substrate. After 10 minutes the reaction was stopped by adding 100 ? l of 2 M sulphuric acid per well. Readout occurred at 450 nm. Sera having an OD450 of 0.2, after deduction of the blank for the respective serum (a well without a coupled peptide), were considered to be positive. […]

[2] = test system: antibodies in pSS (primary Sjögren's syndrome) sera; assay: ELISA of coupled peptides with pSS sera; conditions: n = 50
Protocol: as §1
(§2) Via an N-oxysuccinimide surface the peptides were covalently coupled to the wells of 96-well microtitre plates (Costar amide binding plates) in an amount of 1 ? g/well. Coupling took place for 16 hours at 4EC and pH 9.0. The plates were blocked for 1 hour with 2% bovine serum albumin. The sera were diluted 200 times in a diluent (0.3% BSA, 350 mM NaCl, 10 mM Tris-HCl pH 7.6, 1% vol./vol. Triton X-100, 0.5% w./vol. Na-deoxycholate, 0.1% SDS) supplemented with 10% normal rabbit serum, and incubated for one hour at room temperature. After washing the plates (3 times with PBS containing 0.05 by vol. of Tween® 20), 100 ? l of antihuman IgG conjugated with peroxidase (Dako P214), 1000 times diluted in dilution buffer, was added to the wells. After incubation for 1 hour at room temperature, the plates were washed 3 times with PBS/Tween®, and bound antibodies were detected with tetramethyl benzidine as a substrate. After 10 minutes the reaction was stopped by adding 100 ? l of 2 M sulphuric acid per well. Readout occurred at 450 nm. Sera having an OD450 of 0.2, after deduction of the blank for the respective serum (a well without a coupled peptide), were considered to be positive.

[3] = test system: antibodies in SSC (systemic scleroderma) sera; assay: ELISA of coupled peptides with SSC sera; conditions: n = 50
Protocol: as §1, §2

[4] = test system: antibodies in PM/DM (polymyositis/dermatomyositis) sera; assay: ELISA of coupled peptides with PM/DM sera; conditions: n = 50
Protocol: as §1, §2

[5] = test system: antibodies in control sera from patients suffering from rheumatic diseases other than RA; assay: ELISA of coupled peptides with control sera; conditions: n = 154; rheumatic diseases other than RA
Protocol: as §1, §2
In total, 288 sera from patients suffering from rheumatoid diseases were used, 132 of which were from patients suffering from rheumatoid arthritis.

[6] = test system: antibodies in SLE (systemic lupus erythematosus) sera; assay: ELISA of coupled peptides with SLE sera; conditions: n = 50
Protocol: as §1, §2

Row | Sequence | immunological reactivity in ELISA [1] | pSS (%) positive [2] | pSS: number of positive sera [2] | SSC (%) positive [3] | SSC: number of positive sera [3] | PM/DM (%) positive [4] | PM/DM: number of positive sera [4] | control sera (%) positive [5] | control sera: number of positive sera [5] | SLE: number of positive sera [6] | RA sera (%) positive [1] | RA sera: number of positive sera [1] | SLE (%) positive [6]
1 | SHQESTAGRSRGRSGRSGS [cfA, reference compound] | did not seem to be immunologically reactive | – | – | – | – | – | – | – | – | – | – | – | –
2 | SHQESTRGRSRGRSGXSGS (SHQESTRGRSRGRSG[Cit]SGS-NH2; N-terminus assumed; SMILES C[C@@H](O)[C@H](NC(=O)[C@H](CO)NC(=O)[C@H](CCC(=O)O)NC(=O)[C@H](CCC(N)=O)NC(=O)[C@H](Cc1c[nH]cn1)NC(=O)[C@@H](N)CO)C(=O)N[C@@H](CCCNC(=N)N)C(=O)NCC(=O)N[C@@H](CCCNC(=N)N)C(=O)N[C@@H](CO)C(=O)N[C@@H](CCCNC(=N)N)C(=O)NCC(=O)N[C@@H](CCCNC(=N)N)C(=O)N[C@@H](CO)C(=O)NCC(=O)N[C@@H](CCCNC(N)=O)C(=O)N[C@@H](CO)C(=O)NCC(=O)N[C@@H](CO)C(N)=O) [cfc5] | – | 4% | 2 | 2% | 1 | 2% | 1 | 0.6% | 1 | 0 | 48% | 64 | –
3 | SHQESTXGRSRGRSGXSGS (SHQEST[Cit]GRSRGRSG[Cit]SGS-NH2; N-terminus assumed; SMILES C[C@@H](O)[C@H](NC(=O)[C@H](CO)NC(=O)[C@H](CCC(=O)O)NC(=O)[C@H](CCC(N)=O)NC(=O)[C@H](Cc1c[nH]cn1)NC(=O)[C@@H](N)CO)C(=O)N[C@@H](CCCNC(N)=O)C(=O)NCC(=O)N[C@@H](CCCNC(=N)N)C(=O)N[C@@H](CO)C(=O)N[C@@H](CCCNC(=N)N)C(=O)NCC(=O)N[C@@H](CCCNC(=N)N)C(=O)N[C@@H](CO)C(=O)NCC(=O)N[C@@H](CCCNC(N)=O)C(=O)N[C@@H](CO)C(=O)NCC(=O)N[C@@H](CO)C(N)=O) [cfc9] | – | 4% | 2 | – | 0 | – | 0 | 0.6% | 1 | 0 | 42% | 57 | –
4 | SHQESTXGRSXGRSGRSGS (SHQEST[Cit]GRS[Cit]GRSGRSGS-NH2; N-terminus assumed; SMILES C[C@@H](O)[C@H](NC(=O)[C@H](CO)NC(=O)[C@H](CCC(=O)O)NC(=O)[C@H](CCC(N)=O)NC(=O)[C@H](Cc1c[nH]cn1)NC(=O)[C@@H](N)CO)C(=O)N[C@@H](CCCNC(N)=O)C(=O)NCC(=O)N[C@@H](CCCNC(=N)N)C(=O)N[C@@H](CO)C(=O)N[C@@H](CCCNC(N)=O)C(=O)NCC(=O)N[C@@H](CCCNC(=N)N)C(=O)N[C@@H](CO)C(=O)NCC(=O)N[C@@H](CCCNC(=N)N)C(=O)N[C@@H](CO)C(=O)NCC(=O)N[C@@H](CO)C(N)=O) [cfc7] | – | 2% | 1 | – | 0 | 2% | 1 | 0.6% | 1 | 0 | 45% | 60 | –
5 | SHQESTEGRSRGRSGRSGS [cfE, reference compound] | did not seem to be immunologically reactive | – | – | – | – | – | – | – | – | – | – | – | –
6 | SHQESTRGRSRGXSGRSGS (SHQESTRGRSRG[Cit]SGRSGS-NH2; N-terminus assumed; SMILES C[C@@H](O)[C@H](NC(=O)[C@H](CO)NC(=O)[C@H](CCC(=O)O)NC(=O)[C@H](CCC(N)=O)NC(=O)[C@H](Cc1c[nH]cn1)NC(=O)[C@@H](N)CO)C(=O)N[C@@H](CCCNC(=N)N)C(=O)NCC(=O)N[C@@H](CCCNC(=N)N)C(=O)N[C@@H](CO)C(=O)N[C@@H](CCCNC(=N)N)C(=O)NCC(=O)N[C@@H](CCCNC(N)=O)C(=O)N[C@@H](CO)C(=O)NCC(=O)N[C@@H](CCCNC(=N)N)C(=O)N[C@@H](CO)C(=O)NCC(=O)N[C@@H](CO)C(N)=O) [cfc4] | – | – | 0 | – | 0 | – | 0 | 1.3% | 2 | 0 | 24% | 32 | –
7 | SHQESTRGRSXGRSGRSGS (SHQESTRGRS[Cit]GRSGRSGS-NH2; N-terminus assumed; SMILES C[C@@H](O)[C@H](NC(=O)[C@H](CO)NC(=O)[C@H](CCC(=O)O)NC(=O)[C@H](CCC(N)=O)NC(=O)[C@H](Cc1c[nH]cn1)NC(=O)[C@@H](N)CO)C(=O)N[C@@H](CCCNC(=N)N)C(=O)NCC(=O)N[C@@H](CCCNC(=N)N)C(=O)N[C@@H](CO)C(=O)N[C@@H](CCCNC(N)=O)C(=O)NCC(=O)N[C@@H](CCCNC(=N)N)C(=O)N[C@@H](CO)C(=O)NCC(=O)N[C@@H](CCCNC(=N)N)C(=O)N[C@@H](CO)C(=O)NCC(=O)N[C@@H](CO)C(N)=O) [cfc3] | – | 2% | 1 | – | 0 | 2% | 1 | 0.6% | 2 | 0 | 28% | 37 | –
8 | SHQESTRGRSRGRSGRSGS (Derived from known cDNA sequences of human profilaggrin) [cf, reference compound] | did not seem to be immunologically reactive | – | – | – | – | – | – | – | – | – | – | – | –
9 | SHQESTRGXSRGRSGRSGS (SHQESTRG[Cit]SRGRSGRSGS-NH2; N-terminus assumed; SMILES C[C@@H](O)[C@H](NC(=O)[C@H](CO)NC(=O)[C@H](CCC(=O)O)NC(=O)[C@H](CCC(N)=O)NC(=O)[C@H](Cc1c[nH]cn1)NC(=O)[C@@H](N)CO)C(=O)N[C@@H](CCCNC(=N)N)C(=O)NCC(=O)N[C@@H](CCCNC(N)=O)C(=O)N[C@@H](CO)C(=O)N[C@@H](CCCNC(=N)N)C(=O)NCC(=O)N[C@@H](CCCNC(=N)N)C(=O)N[C@@H](CO)C(=O)NCC(=O)N[C@@H](CCCNC(=N)N)C(=O)N[C@@H](CO)C(=O)NCC(=O)N[C@@H](CO)C(N)=O) [cfc2] | – | 2% | 1 | – | 0 | 2% | 1 | 2.6% | 4 | 1 | 20% | 27 | 2%
10 | ESSHGWTGPSTRGRQGSRHE [nf, reference compound] | not | – | – | – | – | – | – | – | – | – | – | – | –
11 | SHQESTQGRSRGRSGRSGS [cfQ, reference compound] | did not seem to be immunologically reactive | – | – | – | – | – | – | – | – | – | – | – | –
12 | TGPSTRGRQGSXHE (TGPSTRGRQGS[Cit]HE-NH2; N-terminus assumed; SMILES C[C@@H](O)[C@H](N)C(=O)NCC(=O)N1CCC[C@H]1C(=O)N[C@@H](CO)C(=O)N[C@H](C(=O)N[C@@H](CCCNC(=N)N)C(=O)NCC(=O)N[C@@H](CCCNC(=N)N)C(=O)N[C@@H](CCC(N)=O)C(=O)NCC(=O)N[C@@H](CO)C(=O)N[C@@H](CCCNC(N)=O)C(=O)N[C@@H](Cc1c[nH]cn1)C(=O)N[C@@H](CCC(=O)O)C(N)=O)[C@@H](C)O) [nfc1] | – | – | – | – | – | – | – | – | – | – | 10% | – | –
